In general, IC50 refers to the concentration that gives 50% inhibition.

Twelve compounds from patent US11639352B2, “Benzothiazole compounds for the treatment of autoimmune diseases” (Hoffmann-La Roche Inc., priority 2018, dated 2023) can be followed below.

The target of this assay is T1, human TLR8 (Homo sapiens, UniProt Q9NR97).
T1 sequence (Q9NR97 27-1041): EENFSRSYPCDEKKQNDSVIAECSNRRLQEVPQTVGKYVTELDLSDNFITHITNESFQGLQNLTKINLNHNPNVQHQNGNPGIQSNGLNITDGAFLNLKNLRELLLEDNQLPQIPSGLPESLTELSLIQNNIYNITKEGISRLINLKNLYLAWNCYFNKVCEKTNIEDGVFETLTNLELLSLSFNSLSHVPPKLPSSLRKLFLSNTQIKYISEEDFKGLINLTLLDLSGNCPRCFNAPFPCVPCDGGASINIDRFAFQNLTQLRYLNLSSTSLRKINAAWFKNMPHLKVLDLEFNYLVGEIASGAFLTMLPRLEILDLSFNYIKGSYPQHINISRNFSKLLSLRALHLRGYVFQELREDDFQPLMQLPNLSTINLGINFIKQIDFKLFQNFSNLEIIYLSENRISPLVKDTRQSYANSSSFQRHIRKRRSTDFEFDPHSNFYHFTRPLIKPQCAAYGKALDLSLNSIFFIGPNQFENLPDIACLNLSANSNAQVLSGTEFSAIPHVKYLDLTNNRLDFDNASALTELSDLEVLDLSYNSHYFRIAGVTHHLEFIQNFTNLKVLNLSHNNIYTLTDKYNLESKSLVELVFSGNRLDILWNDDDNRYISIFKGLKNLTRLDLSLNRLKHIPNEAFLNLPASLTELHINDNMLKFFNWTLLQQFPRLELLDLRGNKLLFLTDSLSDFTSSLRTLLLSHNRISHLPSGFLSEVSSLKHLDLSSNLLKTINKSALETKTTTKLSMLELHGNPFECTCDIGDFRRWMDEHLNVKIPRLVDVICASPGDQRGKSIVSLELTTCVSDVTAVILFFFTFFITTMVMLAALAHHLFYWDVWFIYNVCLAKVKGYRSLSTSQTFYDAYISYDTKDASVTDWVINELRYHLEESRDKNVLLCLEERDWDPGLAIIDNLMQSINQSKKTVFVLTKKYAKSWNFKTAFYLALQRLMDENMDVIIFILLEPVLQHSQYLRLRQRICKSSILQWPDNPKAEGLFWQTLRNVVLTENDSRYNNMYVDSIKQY
Nature of the assay: HEK293-Blue-hTLR-8 cells assay (SEAP reporter, R848 stimulation). It counts as cell-based. The conditions noted are these: HEK293-Blue-hTLR8 cells, R848 ligand, 20 hrs incubation, antagonist. The method, then: The following tests were carried out in order to determine the activity of the compounds of formula (I) in HEK293-Blue-hTLR-7/8/9 cells assay.
HEK293-Blue-hTLR-8 Cells Assay:
A stable HEK293-Blue-hTLR-8 cell line was purchased from InvivoGen (Cat. #: hkb-htlr8, San Diego, Calif., USA). These cells were originally designed for studying the stimulation of human TLR8 by monitoring the activation of NF-κB. A SEAP (secreted embryonic alkaline phosphatase) reporter gene was placed under the control of the IFN-β minimal promoter fused to five NF-κB and AP-1-binding sites. The SEAP was induced by activating NF-κB and AP-1 via stimulating HEK-Blue hTLR8 cells with TLR8 ligands. Therefore the reporter expression was declined by TLR8 antagonist under the stimulation of a ligand, such as R848, for incubation of 20 hrs. The cell culture supernatant SEAP reporter activity was determined using QUANTI-Blue™ kit (Cat. #: rep-qb1, Invivogen, San Diego, Calif., USA) at a wavelength of 640 nm, a detection medium that turns purple or blue in the presence of alkaline phosphatase.
HEK293-Blue-hTLR8 cells were incubated at a density of 250,000˜450,000 cells/mL in a volume of 170 μL in a 96-well plate in Dulbecco's Modified Eagle's medium (DMEM) containing 4.5 g/L glucose, 50 U/mL penicillin, […], […], 2 mM L-glutamine, 10% (v/v) heat-inactivated fetal bovine serum with addition of 20 μL test compound in a serial dilution in the presence of final DMSO at 1% and 10 μL of 60 uM R848 in above DMEM, perform incubation under 37° C. in a CO2 incubator for 20 hrs. Then 20 μL of the supernatant from each well was incubated with 180 μL Quanti-blue substrate solution at 37° C. for 2 hrs and the absorbance was read at 620˜655 nm using a spectrophotometer. The signalling pathway that TLR8 activation leads to downstream NF-κB activation has been widely accepted, and therefore similar reporter assay was modified for evaluating TLR8 antagonist.

Structures are written as SMILES.

For the compound `C[C@@H]1CN(c2ccc(C#N)c3ncsc23)C[C@H](CN2[C@@H]3CC[C@H]2C[C@@H](N)C3)O1` [Example 8, Endo-7-[(2S,6R)-2-[[(1R,5S)-3-amino-8-azabicyclo[3.2.1]octan-8-yl]methyl]-6-methyl-morpholin-4-yl]-1,3-benzothiazole-4-carbonitrile], the IC50 is less than 3 nM.
Compound `C[C@@H]1CN(c2ccc(C#N)c3ncsc23)C[C@H](C(=O)NC2CCN(C)CC2)O1` [Example 11, (2R,6R)-4-(4-cyano-1,3-benzothiazol-7-yl)-6-methyl-N-(1-methyl-4-piperidyl)morpholine-2-carboxamide] returned an IC50 of less than 3 nM.
In turn, `C[C@@H]1CN(c2ccc(C#N)c3ncsc23)C[C@H](CN2CCC(N3CCCCC3)CC2)O1` [Example 7, 7-[(2R,6S)-2-methyl-6-[[4-(1-piperidyl)-1-piperidyl]methyl]morpholin-4-yl]-1,3-benzothiazole-4-carbonitrile] yielded an IC50 of less than 3 nM.
Compound `C[C@@H]1CN(c2ccc(C#N)c3ncsc23)C[C@H](CN2CCC(N)CC2)O1` [Example 2, 7-[(2S,6R)-2-[(4-amino-1-piperidyl)methyl]-6-methyl-morpholin-4-yl]-1,3-benzothiazole-4-carbonitrile] returned an IC50 of 5 nM.
`C[C@@H]1CN(c2ccc(C#N)c3ncsc23)C[C@H](CN2CCC3(CCNC3)CC2)O1` [Example 6, 7-[(2S,6R)-2-(2,8-diazaspiro[4.5]decan-8-ylmethyl)-6-methyl-morpholin-4-yl]-1,3-benzothiazole-4-carbonitrile] came in with an IC50 of 22 nM.
As for `C[C@@H]1CN(c2ccc(C#N)c3ncsc23)C[C@H](CN2CCC3(CCCNC3)C2)O1` (stereo partly drawn) [Example 1, 7-[(2S,6R)-2-(2,9-diazaspiro[4.5]decan-2-ylmethyl)-6-methyl-morpholin-4-yl]-1,3-benzothiazole-4-carbonitrile], the IC50 was less than 3 nM.
Then `C[C@@H]1CN(c2ccc(C#N)c3ncsc23)C[C@H](CN2CCC3(CCNCC3)CC2)O1` [Example 5, 7-[(2S,6R)-2-(3,9-diazaspiro[5.5]undecan-3-ylmethyl)-6-methyl-morpholin-4-yl]-1,3-benzothiazole-4-carbonitrile], with 107 nM; and `C[C@@H]1CN(c2ccc(C#N)c3ncsc23)C[C@H](CN2[C@@H]3CC[C@H]2C[C@H](N)C3)O1` [Example 9, Exo-7-[(2S,6R)-2-[[(1S,5R)-3-amino-8-azabicyclo[3.2.1]octan-8-yl]methyl]-6-methyl-morpholin-4-yl]-1,3-benzothiazole-4-carbonitrile], with 8 nM; and `C[C@@H]1CN(c2ccc(C#N)c3ncsc23)C[C@H](C(=O)NCC2CN(C)CCO2)O1` (stereo partly drawn) [Example 12, (2R,6R)-4-(4-cyano-1,3-benzothiazol-7-yl)-6-methyl-N-[(4-methylmorpholin-2-yl)methyl]morpholine-2-carboxamide], with less than 3 nM.
`C[C@@H]1CN(c2ccc(C#N)c3ncsc23)C[C@H](CN2CCC3(CCCNC3)CC2)O1` [Example 3, 7-[(2S,6R)-2-(2,9-diazaspiro[5.5]undecan-9-ylmethyl)-6-methyl-morpholin-4-yl]-1,3-benzothiazole-4-carbonitrile] gave an IC50 of 12 nM. This counts as double-digit nanomolar.
`C[C@@H]1CN(c2ccc(C#N)c3ncsc23)C[C@H](CN2CCC3(CCCN(C)C3)CC2)O1` [Example 10, 7-[(2R,6S)-2-methyl-6-[(2-methyl-2,9-diazaspiro[5.5]undecan-9-yl)methyl]morpholin-4-yl]-1,3-benzothiazole-4-carbonitrile]: the IC50 is less than 3 nM.
On to `C[C@@H]1CN(c2ccc(C#N)c3ncsc23)C[C@H](CN2CC3(CCCNC3)C2)O1` [Example 4, 7-[(2S,6R)-2-(2,8-diazaspiro[3.5]nonan-2-ylmethyl)-6-methyl-morpholin-4-yl]-1,3-benzothiazole-4-carbonitrile], for which the IC50 was 14 nM.
